In brackets after ≈: the same amount, converted by molar mass. Read-outs that look alike come from different tables or passages of the source.
Tests used:
Mtb = conditions: cited from earlier work
[1] = tested on: Mtb strain H37Rv ATCC 27294; assay: Microplate Alamar Blue Assay (MABA), susceptible strain; format: cell-based; conditions: Mycobacterium tuberculosis
VERO cell line = format: cell-based; conditions: for cytotoxicity: MTT method, VERO cell line
Description: First, a VERO cell line suspension was prepared and distributed into each of the 96 wells of the culture plate, which was then incubated for 48 h to allow the cells to adhere. After this period, the suspension medium was discarded, and the cells were exposed to the substances under study, leaving them in the wells for a period of between 24 and 48 h. After this, the substance was discarded, and the cells were washed with a buffer, with MTT being added, followed by a 3 h incubation. After this period, the MTT was discarded, and Dimethyl sulfoxide (DMSO) was added to solubilize the formazan crystals generated. Finally, the absorbance of each well of the plate was obtained using a microplate spectrophotometer. The absorbance was quantified based on the readings that the equipment makes, based on the different intensities of the purple color in the wells of the plate; the more purple the well, the more viable cells there are.

protein kinase B (PknB) = conditions: cited from earlier work
[2] = Mtb H37Rv, strain sensitive to all first- and second-line drugs, MABA, triplicate, read-out: MIC
[3] = as quoted in sections 2.2 and 2.3, strain not stated, read-out: MIC (antimycobacterial activity)

| Compound | MIC [1, 2] | further results |
| --- | --- | --- |
| O=C1NC(c2ccc(OCc3cn(-c4ccc(F)c(F)c4)nn3)cc2)Nc2ccccc21 (centres unmarked) [Compound 5] | – | MIC (Mtb; anti-TB action): 3.12 µg/mL (≈ 7.2 µM) |
| C=CCC1[Se]c2ccccc2C1=O (centres unmarked) [Compound 1] | – | MIC (Mtb; anti-TB activity): 12.5 µg/mL (≈ 52.7 µM) |
| CC1=C(C(c2ccccc2)n2cc(CSc3ccccc3)nn2)C(=O)c2ccccc2C1=O (centres unmarked) [Compound 10g, 2-methyl-3-(phenyl(4-((phenylthiol)methyl)-1H-1,2,3-triazolyl)methyl)naphthalene-1,4-dione] | > 100 µg/mL | – |
| CC1=C(C(c2ccc(C)cc2)n2cc(C[Se]c3ccccc3)nn2)C(=O)c2ccccc2C1=O (centres unmarked) [Compound 9h, 2-methyl-3-((4-((phenylselanyl)methyl)-1H-1,2,3-triazolyl)(p-methylphenyl)methyl) naphthalene-1,4-dione] | 24.9 µg/mL (≈ 48.7 µM) | cytotoxicity (VERO cell line): minimal cytotoxicity; toxicity at concentrations of up to 100 µg/mL (VERO cell line): non-toxic |
| CC1=C(C(c2ccccc2)n2cc(C[Se]c3ccccc3)nn2)C(=O)c2ccccc2C1=O (centres unmarked) [Compound 9g, 2-methyl-3-(phenyl(4-((phenylselanyl)methyl)-1H-1,2,3-triazolyl)methyl)naphthalene-1,4-dione] | 12.5 µg/mL (≈ 25.1 µM) | cytotoxicity (VERO cell line): minimal cytotoxicity; toxicity at concentrations of up to 100 µg/mL (VERO cell line): non-toxic; MIC [1, 3]: 3.12 µg/mL (≈ 6.26 µM) |
| NNC(=O)c1ccncc1 [INH, isoniazid, reference compound] | 0.12 µg/mL (≈ 0.875 µM) | – |
| CC1=C(Cn2cc(CSc3ccccc3C)nn2)C(=O)c2ccccc2C1=O [Compound 10d, 2-methyl-3-((4-((o-methylphenylthiol)methyl)-1H-1,2,3-triazolyl)methyl)naphthalene-1,4-dione] | > 100 µg/mL | – |
| CC1=C(Cn2cc(C[Se]c3c(C)cc(C)cc3C)nn2)C(=O)c2ccccc2C1=O [Compound 9d, 2-((4-((2,4,6-trimethyl-phenylselanyl)methyl)-1H-1,2,3-triazolyl)methyl)-3-methylnaphthalene-1,4-dione] | > 99.9 µg/mL | – |
| CC1=C(C(c2ccc(C)cc2)n2cc(CSc3ccccc3)nn2)C(=O)c2ccccc2C1=O (centres unmarked) [Compound 10h, 2-methyl-3-((4-((phenylthiol)methyl)-1H-1,2,3-triazolyl)(p-methylphenyl)methyl)naphthalene-1,4-dione] | > 100 µg/mL | – |
| CC1=C(C(C)n2cc(C[Se]c3ccccc3)nn2)C(=O)c2ccccc2C1=O (centres unmarked) [Compound 9f, 2-methyl-3-(1-(4-((phenylselanyl)methyl)-1H-1,2,3-triazolyl)ethyl)naphthalene-1,4-dione] | 6.23 µg/mL (≈ 14.3 µM) | MIC [1, 3]: > 43.6 µg/mL |
| CC1=C(Cn2cc(CSc3ccccc3)nn2)C(=O)c2ccccc2C1=O [Compound 10a, 2-methyl-3-((4-((phenylthiol)methyl)-1H-1,2,3-triazolyl)methyl)naphthalene-1,4-dione] | 100 µg/mL (≈ 267 µM) | – |
| NC(=O)c1cnccn1 [PZA, pyrazinamide, reference compound] | 100 µg/mL (≈ 813 µM) | – |
| CC1=C(Cn2cc(CSc3ccc(Cl)cc3)nn2)C(=O)c2ccccc2C1=O [Compound 10b, 2-((4-(((4-chlorophenyl)thiol)methyl)-1H-1,2,3-triazolyl)methyl)-3-methylnaphthalene-1,4-dione] | > 100 µg/mL | – |
| CC1=C(Cn2cc(C[Se]c3ccc4ccccc4c3)nn2)C(=O)c2ccccc2C1=O [Compound 9e, 2-methyl-3-((4-((naphthalenylselanyl)methyl)-1H-1,2,3-triazolyl)methyl)naphthalene-1,4-dione] | 99.9 µg/mL (≈ 211 µM) | – |
| O=C1NC(c2ccc(OCc3cn(-c4ccc(F)cc4F)nn3)cc2)Nc2ccccc21 (centres unmarked) [Compound 4] | – | MIC (Mtb; anti-TB action): 0.78 µg/mL (≈ 1.8 µM) |
| CC1=C(Cn2cc(C[Se]c3cccc(C(F)(F)F)c3)nn2)C(=O)c2ccccc2C1=O [Compound 9c] | ≤ 49.9 µg/mL | – |
| CC1=C(Cn2cc(CSCc3ccco3)nn2)C(=O)c2ccccc2C1=O [Compound 10e, 2-((4-(((furan-2-ylmethyl)thiol)methyl)-1H-1,2,3-triazolyl)methyl)-3-methylnaphthalene-1,4-dione] | > 100 µg/mL | – |
| CC1=C(Cn2cc(CSc3ccc(C)cc3)nn2)C(=O)c2ccccc2C1=O [Compound 10c, 2-methyl-3-((4-((p-methylphenylthiol)methyl)-1H-1,2,3-triazolyl)methyl)naphthalene-1,4-dione] | > 100 µg/mL | – |
| CC1=C(Cn2cc(C[Se]c3ccccc3)nn2)C(=O)c2ccccc2C1=O [Compound 9a, 2-methyl-3-((4-((phenylselanyl)methyl)-1H-1,2,3-triazolyl)methyl)naphthalene-1,4-dione] | 6.23 µg/mL (≈ 14.8 µM) | cytotoxicity (VERO cell line): minimal cytotoxicity; toxicity at concentrations of up to 100 µg/mL (VERO cell line): non-toxic; MIC [1, 3]: 6.76 µg/mL (≈ 16 µM) |
| O=C1c2c(O)ccc(O)c2C(=O)c2c(NCCNCCO)ccc(NCCNCCO)c21 [co-crystallized ligand, 1,4-dihydroxy-5,8-bis({2-[(2-hydroxyethyl)amino]ethyl}amino)-9,10-anthracenedione] | – | IC50 (protein kinase B (PknB)): 800 nM |
| CC1=C(C(C)n2cc(CSc3ccccc3)nn2)C(=O)c2ccccc2C1=O (centres unmarked) [Compound 10f, 2-methyl-3-(1-(4-((phenylthiol)methyl)-1H-1,2,3-triazolyl)ethyl)naphthalene-1,4-dione] | 100 µg/mL (≈ 257 µM) | – |
| C/C(=N/N=C1/NC(=O)CS1)c1ccc(-c2ccccc2)cc1 [Compound 2] | – | MIC (Mtb; anti-TB activity): 12.5 µg/mL (≈ 40.4 µM) |
| CC1=C(Cn2cc(C[Se]c3ccc(Cl)cc3)nn2)C(=O)c2ccccc2C1=O [Compound 9b, 2-((4-(((4-chlorophenyl)selanyl)methyl)-1H-1,2,3-triazolyl)methyl)-3-methylnaphthalene-1,4-dione] | 3.2 µg/mL (≈ 7.01 µM) | cytotoxicity (VERO cell line): minimal cytotoxicity; toxicity at concentrations of up to 100 µg/mL (VERO cell line): non-toxic; MIC [1, 3]: 3.2 µg/mL (≈ 7.01 µM) |

Reference: article PMC12195982, “Design, Synthesis, and In Vitro Evaluation of 4-(Arylchalcogenyl)methyl)-1H-1,2,3-triazol-1-yl-menadione: Exploring Their Potential Against Tuberculosis” (Pharmaceuticals, 2025)
